According to the supplement of paper PMC8671470:

Assays:
Conditions in all cases: 72 h
[1] = system: myeloid leukemia patient primary cells Pat.10; experiment: cell viability (% survival relative to DMSO control); higher = less cytotoxic
Outline: (§1)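 Seventy compounds were pre-printed on 384-well plates at five tenfold concentrations between 1 and 10,000 nM, in duplicate. Thawed mononuclear cells purified by Ficoll from AML or CML patients were added at 10,000 cells/well in RPMI 1640 with 10% FBS for 72 h. Viability by CellTiter-Glo was normalised to DMSO and 10 μM proteasome-inhibitor wells. Where stated, area under the curve was taken from log-logistic fits made with the drc and PharmacoGx R packages, each fit having four parameters.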

[2] = system: myeloid leukemia patient primary cells Pat.11; experiment: as above
Outline: as §1

[3] = system: myeloid leukemia patient primary cells Pat.12; experiment: as above
Outline: as §1

[4] = system: myeloid leukemia patient primary cells Pat.13; experiment: as above
Outline: as §1

[5] = system: myeloid leukemia patient primary cells Pat.14; experiment: as above
Outline: as §1

[6] = system: myeloid leukemia patient primary cells Pat.15; experiment: as above
Outline: as §1

[7] = system: myeloid leukemia patient primary cells Pat.1; experiment: as above
Outline: as §1

[8] = system: myeloid leukemia patient primary cells Pat.2; experiment: as above
Outline: as §1

[9] = system: myeloid leukemia patient primary cells Pat.3; experiment: as above
Outline: as §1

[10] = system: myeloid leukemia patient primary cells Pat.4; experiment: as above
Outline: as §1

[11] = system: myeloid leukemia patient primary cells Pat.5; experiment: as above
Outline: as §1

[12] = system: myeloid leukemia patient primary cells Pat.6; experiment: as above
Outline: as §1

[13] = system: myeloid leukemia patient primary cells Pat.7; experiment: as above
Outline: as §1

[14] = system: myeloid leukemia patient primary cells Pat.8; experiment: as above
Outline: as §1

[15] = system: myeloid leukemia patient primary cells Pat.9; experiment: as above
Outline: as §1

[16] = system: myeloid leukemia patient primary cells Pat.10; experiment: area under dose-response curve (viability, 1 nM-10 uM) (fraction (0-1)); higher = more sensitive
Protocol: (§2)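 AUC (0–1, higher = more sensitive) of the 5-point dose–response (1 nM–10 µM, 72 h, CellTiter-Glo) in primary AML/CML patient mononuclear cells. 0.030103 is the floor for inactive compounds.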

[17] = system: myeloid leukemia patient primary cells Pat.11; experiment: as above
Protocol: as §2

[18] = system: myeloid leukemia patient primary cells Pat.12; experiment: as above
Protocol: as §2

[19] = system: myeloid leukemia patient primary cells Pat.13; experiment: as above
Protocol: as §2

[20] = system: myeloid leukemia patient primary cells Pat.14; experiment: as above
Protocol: as §2

[21] = system: myeloid leukemia patient primary cells Pat.15; experiment: as above
Protocol: as §2

[22] = system: myeloid leukemia patient primary cells Pat.1; experiment: as above
Protocol: as §2

[23] = system: myeloid leukemia patient primary cells Pat.2; experiment: as above
Protocol: as §2

[24] = system: myeloid leukemia patient primary cells Pat.3; experiment: as above
Protocol: as §2

[25] = system: myeloid leukemia patient primary cells Pat.4; experiment: as above
Protocol: as §2

[26] = system: myeloid leukemia patient primary cells Pat.5; experiment: as above
Protocol: as §2

[27] = system: myeloid leukemia patient primary cells Pat.6; experiment: as above
Protocol: as §2

[28] = system: myeloid leukemia patient primary cells Pat.7; experiment: as above
Protocol: as §2

[29] = system: myeloid leukemia patient primary cells Pat.8; experiment: as above
Protocol: as §2

[30] = system: myeloid leukemia patient primary cells Pat.9; experiment: as above
Protocol: as §2

BV-173 [31] = system: BV-173
Outline: (§3)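 Each of fifteen myeloid leukaemia cell lines was seeded in RPMI 1640 at a density titrated to its linear growth range. The cells were incubated for 72 h at 37 °C and 5% CO2 with compounds at five tenfold doses from 1 to 10,000 nM, in duplicate. After ATP luminescence was normalised to vehicle and to a positive control at 10 µM, four-parameter log-logistic curves were fitted. These curves gave the IC50.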

HEL [32] = system: HEL
Outline: as §3

HL-60 [33] = system: HL-60
Outline: as §3

K-562 [34] = system: K-562
Outline: as §3

KCL-22 [35] = system: KCL-22
Outline: as §3

KG-1 [36] = system: KG-1
Outline: as §3

KU-812 [37] = system: KU-812
Outline: as §3

LAMA-84 [38] = system: LAMA-84
Outline: as §3

ML-2 [39] = system: ML-2
Outline: as §3

MOLM-13 [40] = system: MOLM-13
Outline: as §3

MV4-11 [41] = system: MV4-11
Outline: as §3

Mono-Mac-6 [42] = system: Mono-Mac-6
Outline: as §3

NOMO-1 [43] = system: NOMO-1
Outline: as §3

SHI-1 [44] = system: SHI-1
Outline: as §3

THP-1 [45] = system: THP-1
Outline: as §3

BV-173 [46] = experiment: cell viability (% survival relative to DMSO control, bortezomib = 0%); higher = less cytotoxic
Outline: (§4)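 Percent survival is reported as the mean of duplicate wells. Cells from 10 AML and 5 CML lines were plated in 384-well plates containing compounds at 1, 10, 100, 1000 or 10000 nM and kept for 72 h at 37 °C in 5% CO2. Readout used CellTiter-Glo luminescence, scaled so that vehicle equals 100% and a 10 µM positive control equals 0%.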

HEL [47] = experiment: as above
Outline: as §4

HL-60 [48] = experiment: as above
Outline: as §4

K-562 [49] = experiment: as above
Outline: as §4

KCL-22 [50] = experiment: as above
Outline: as §4

KG-1 [51] = experiment: as above
Outline: as §4

KU-812 [52] = experiment: as above
Outline: as §4

LAMA-84 [53] = experiment: as above
Outline: as §4

ML-2 [54] = experiment: as above
Outline: as §4

MOLM-13 [55] = experiment: as above
Outline: as §4

MV4-11 [56] = experiment: as above
Outline: as §4

Mono-Mac-6 [57] = experiment: as above
Outline: as §4

NOMO-1 [58] = experiment: as above
Outline: as §4

SHI-1 [59] = experiment: as above
Outline: as §4

THP-1 [60] = experiment: as above
Outline: as §4

O=C(CCl)N(CCCNC(=O)C(F)(F)F)c1ccc([N+](=O)[O-])cc1 [ML-175]
cell viability [%]
Conditions	1 nM	10 nM	100 nM	1000 nM	10000 nM
[1]	81.5	93.1	17.1	15.7	5.41
[2]	95.5	97	86.2	67.7	1.51
[3]	96.2	98.2	80.4	58.4	1.48
[4]	92.9	88.6	71.6	62.1	3.76
[5]	87.8	82.6	29.4	51.2	2.44
[6]	95	80.2	86.1	75.6	1.52
[7]	85.7	78.3	67.8	72.8	< 0
[8]	94.8	93.7	89.3	82.8	4.31
[9]	96.1	96.2	23.6	46.1	0.554
[10]	97.6	79.3	65.7	42.1	1.37
[11]	99.9	51.6	< 0	2.01	< 0
[12]	97.1	94.4	70.2	61.2	1.29
[13]	> 100	89.4	11.6	43.6	50
[14]	87.1	89	85.1	65.8	0.0301
[15]	64.6	81.5	7.88	7.21	0.492

Conditions	area under dose-response curve
[16]	0.542
[17]	0.199
[18]	0.221
[19]	0.19
[20]	0.488
[21]	0.159
[22]	0.149
[23]	0.147
[24]	0.498
[25]	0.29
[26]	0.744
[27]	0.204
[28]	0.533
[29]	0.192
[30]	0.593

CC(C)(O)CNc1nc(Nc2ccnc(C(F)(F)F)c2)nc(-c2cccc(C(F)(F)F)n2)n1 [Enasidenib]
Conditions	IC50 (cell viability) [µM]
BV-173 [31]	> 10
HEL [32]	> 10
HL-60 [33]	> 10
K-562 [34]	> 10
KCL-22 [35]	> 10
KG-1 [36]	> 10
KU-812 [37]	> 10
LAMA-84 [38]	> 10
ML-2 [39]	> 10
MOLM-13 [40]	> 10
MV4-11 [41]	> 10
Mono-Mac-6 [42]	> 10
NOMO-1 [43]	> 10
SHI-1 [44]	> 10
THP-1 [45]	> 10

cell viability [%]
Conditions	1 nM	10 nM	100 nM	1000 nM	10000 nM
BV-173 [46]	101	90.7	121	98.4	90
HEL [47]	106	106	123	111	85.6
HL-60 [48]	118	108	118	99.1	106
K-562 [49]	93.1	98.3	98.3	95.2	82.5
KCL-22 [50]	89.2	102	113	97.4	93.6
KG-1 [51]	103	95	107	92.8	117
KU-812 [52]	92.4	97.2	103	90	93.2
LAMA-84 [53]	101	94.8	99.1	104	103
ML-2 [54]	109	100	113	97.3	68.8
MOLM-13 [55]	83.9	90.8	98.5	101	103
MV4-11 [56]	101	88.9	112	103	81.1
Mono-Mac-6 [57]	94.8	100	113	107	126
NOMO-1 [58]	98.3	98.8	107	93.6	92.9
SHI-1 [59]	109	105	114	113	109
THP-1 [60]	101	103	114	93.5	97.5
